Data set [1] is described as follows: Stability test for wet Rasagiline Tartrate Pure. The data set is classed as physicochemical. The following applies: for L.O.D.: samples dried prior to analysis; for Description: wet with isopropanol and water; for Description / Chromatographic purity by HPLC: 1-Aminoindan / Chromatographic purity by HPLC: Any other / ID by HPLC / S-isomer by HPLC: RT, polyethylene bag; for Chromatographic purity by HPLC: 1-Aminoindan / Chromatographic purity by HPLC: Any other / ID by HPLC / S-isomer by HPLC: wet. The source says:
Rasagiline Tartrate Pure wet with isopropanol and water was stored at ambient temperature (RT) in polyethylene bag. The solid was sampled, dried to constant weight and analyzed.

The conditions of data set [2]: oil. Here is the method: Approximately four (4) grams of rasagiline base was introduced into the sublimation reservoir of a standard Sigma-Aldrich glass sublimation apparatus, (Cat. No. Z221171-1EA) with internal diameter of 3 cm. The apparatus was equipped with vacuum pump, vacuumeter and circulating ice-water bath for cooling of the apparatus' sublimation head. The apparatus was then closed and circulation of coolant at 0 to 1° C. was started. The vacuum was then built to a pressure (“P”) of 2-3 mbar and the reservoir was introduced into thermostatic water bath maintained at temperature (“T”) of 21° C.
The process was controlled by visual observation of the sublimed solid forming on the sublimation head. After sublimation completed the operation time was recorded, the apparatus was opened and the sublimed solid was removed from the head and weighed.
The mean sublimation rate was calculated as follows:
Mean Sublimation Rate Rs1: Rs1=m/M·t [gg^−1hr^−1]
Mean Sublimation Rate Rs2: Rs2=m/S·t [gm^−2hr^−1]
Mean Relative Sublimation Rate R: R=m·100/M·t [%/hr] m—mass of sublimed material, g M—mass of starting material, g t=sublimation time, hrs S=sublimation area (apparatus section area), m^2

Data set [3] in a line: Stability test for dried Rasagiline Tartrate Pure. The data set is classed as physicochemical. As to conditions: for Chromatographic purity by HPLC: 1-Aminoindan / Chromatographic purity by HPLC: Any other / Description / ID by HPLC / L.O.D. / S-isomer by HPLC: RT, polyethylene bag.
Source text: A batch of dry Rasagiline Tartrate Pure produced in Example ?? was stored at ambient temperature (RT) in polyethylene bag. The solid was sampled and analyzed at time zero, than after 2 weeks and 4 weeks from time zero.
The next data set can be described thus: physchem. The following applies: 25 °C.
[4] abbreviates: Ex. 22, 20 mbar, 35 °C, 5.33 hr.
Where [5] appears, read: Ex. 23, 2-3 mbar, 22 °C, 3.0 hr.
Where [6] appears, read: Ex. 24, 2-3 mbar, 60 °C, 1.3 hr.

The values below come from patent US8163960B2, “Process for preparing and drying solid rasagiline base” (Teva Pharmaceutical Industries, Ltd., priority 2008, dated 2012).

Structures are written as SMILES. Structures can show the parent of a compound that is named as a salt. Where two headings read alike, the source gives them in different places.

On to `C#CCN[C@@H]1CCc2ccccc21.C#CCN[C@@H]1CCc2ccccc21.O=C(O)C(O)C(O)C(=O)O` [Wet RB-2087], for which the Time limitation result in data set [1] (Storage temperature R.T.) is on record as “One month”. Moreover, in data set [1] (2 weeks), the L.O.D. was found to be 0.05%, the Description entry is “White”, the “Chromatographic purity by HPLC: 1-Aminoindan” value was “L.T. 0.03%” and the “Chromatographic purity by HPLC: Any other” value is “L.T. 0.03%”. Further, in data set [1] (2 weeks), the “ID by HPLC” value was “Conforms” and the “S-isomer by HPLC” value is “L.T. 0.3%”. In data set [1] (4 weeks), the L.O.D. amounted to 0.04%, the Description result is given as “White”, the “Chromatographic purity by HPLC: 1-Aminoindan” value is reported as “L.T. 0.03%” and the “Chromatographic purity by HPLC: Any other” value is “L.T. 0.03%”. Moreover, in data set [1] (4 weeks), the “ID by HPLC” value is recorded as “Conforms” and the “S-isomer by HPLC” value is “L.T. 0.3%”. Also, in data set [1] (Start (t = 0)), the L.O.D. is on record as 0.01%, the Description result is reported as “White”, the “Chromatographic purity by HPLC: 1-Aminoindan” value is given as “L.T. 0.03%” and the “Chromatographic purity by HPLC: Any other” value is given as “L.T. 0.03%”. Besides, in data set [1] (Start (t = 0)), the “ID by HPLC” value is recorded as “Conforms” and the “S-isomer by HPLC” value is on record as “L.T. 0.3%”.

For the molecule `C#CCNC1CCc2ccccc21` (racemic) [Rac.PAI oil, N-propargyl-1-aminoindan, reference compound], the “Mean relative sublimation rate R” value in data set [2] (Ex. 21, 20 mbar, 22 °C, 8.0 hr) was determined as 0.0 %/hr; in data set [2] (setting [4]), 0.0 %/hr; in data set [2] (setting [5]), 0.08 %/hr; in data set [2] (setting [6]) it was 2.5 %/hr. For the same molecule, the “Mean sublimation rate Rs1” value in data set [2] (Ex. 21, 20 mbar, 22 °C, 8.0 hr) came out at 0.0 g/g/h; in data set [2] (setting [4]), 0.0 g/g/h; in data set [2] (Ex. 23, 2-3 mbar, 22 °C, 3.0 hr, listed as racemic PAI) it was 0.000833 g/g/h; in data set [2] (Ex. 24, 2-3 mbar, 60 °C, 1.3 hr, listed as racemic PAI), 0.025 g/g/h. Also, the “Mean sublimation rate Rs2” value is reported as 0.0 g/hr/m^2 in data set [2] (Ex. 21, 20 mbar, 22 °C, 8.0 hr); 0.0 g/hr/m^2 in data set [2] (setting [4]); 3.537 g/hr/m^2 in data set [2] (setting [5]); 101.16 g/hr/m^2 in data set [2] (setting [6]). Besides, the Sublimed solid fraction in data set [2] (Ex. 21, 20 mbar, 22 °C, 8.0 hr) was found to be 0.0%; in data set [2] (setting [4]) it was 0.0%; in data set [2] (setting [5]) it was 0.25%; in data set [2] (setting [6]), 3.25%. Also, the “−log Rs1” value in data set [2] (setting [5]) was 3.08; in data set [2] (setting [6]), 1.60.

In the case of `C#CCN[C@@H]1CCc2ccccc21.C#CCN[C@@H]1CCc2ccccc21.O=C(O)C(O)C(O)C(=O)O` [Dry GA-18062], in data set [3] (2 weeks), the “Chromatographic purity by HPLC: 1-Aminoindan” value is “L.T. 0.03%”, the “Chromatographic purity by HPLC: Any other” value was “L.T. 0.03%”, the Description entry is listed as “White” and the “ID by HPLC” value was “Conforms”. Moreover, in data set [3] (2 weeks), the L.O.D. came out at 0.16% and the “S-isomer by HPLC” value is “L.T. 0.3%”. For the same molecule, in data set [3] (4 weeks), the “Chromatographic purity by HPLC: 1-Aminoindan” value is “L.T. 0.03%”, the “Chromatographic purity by HPLC: Any other” value is “L.T. 0.03%”, the Description entry is “White” and the “ID by HPLC” value was “Conforms”. Besides, in data set [3] (4 weeks), the L.O.D. stood at 0.03% and the “S-isomer by HPLC” value is recorded as “L.T. 0.3%”. Besides, in data set [3] (Start (t = 0)), the “Chromatographic purity by HPLC: 1-Aminoindan” value is listed as “L.T. 0.03%”, the “Chromatographic purity by HPLC: Any other” value is listed as “L.T. 0.03%”, the Description entry is given as “White” and the “ID by HPLC” value is on record as “Conforms”. Moreover, in data set [3] (Start (t = 0)), the L.O.D. came to 0.03% and the “S-isomer by HPLC” value is on record as “L.T. 0.3%”. In addition, the Time limitation result in data set [3] (Storage temperature R.T.) was “One month”.

As to `C#CCN[C@@H]1CCc2ccccc21` [rasagiline mesylate], the solubility (commonly how much of the substance goes into solution per volume) in “physchem” (pH 3.3, water) worked out at 570 mg/mL; in “physchem” (pH 6.7, water) it was 92 mg/mL.
